Laboratory results as given in patent US10370333B2 (Sanford Burnham Prebys Medical Discovery Institute, priority 2012, dated 2019).

These molecules were tested against TNAP (Homo sapiens (Human), UniProt P05186) (assay: TNAP (PPi) inhibition assay, pyrophosphate as substrate).
Format: biochemical
Outline: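 Enzyme source was conditioned serum-free medium from COS-1 cells transiently expressing tagged human TNAP, dialyzed against TBS with MgCl2/ZnCl2. Activity on natural substrate PPi at pH 7.4 read as liberated phosphate (Biomol Green).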

Structure (SMILES) | IC50 [nM]
O=S(=O)(Nc1cnc2ccccc2c1)c1cc(Br)ccc1OC(F)(F)F [Example X-1, 5-Bromo-N-quinolin-3-yl-2-trifluoromethoxy-benzenesulfonamide] | < 100
O=S(=O)(Nc1cnc2ccccc2c1)c1cc(F)ccc1OC(F)(F)F [Example X-2, 5-Fluoro-N-quinolin-3-yl-2-trifluoromethoxy-benzenesulfonamide] | 100 to 1000
O=S(=O)(Nc1cnc2ccccc2c1)c1cc(Cl)ccc1OC(F)(F)F [Example X-3, 5-Chloro-N-quinolin-3-yl-2-trifluoromethoxy-benzenesulfonamide] | < 100
Cc1ccc(OC(F)(F)F)c(S(=O)(=O)Nc2cnc3ccccc3c2)c1 [Example X-4, 5-Methyl-N-quinolin-3-yl-2-trifluoromethoxy-benzenesulfonamide] | < 100
Cc1ccc(OC(F)(F)F)cc1S(=O)(=O)Nc1cnc2ccccc2c1 [Example X-5, 2-methyl-N-quinolin-3-yl-5-trifluoromethoxy-benzenesulfonamide] | > 1000
COc1ccc(OC(F)(F)F)cc1S(=O)(=O)Nc1cnc2ccccc2c1 [Example X-6, 2-Methoxy-N-(quinolin-3-yl)-5-(trifluoromethoxy)benzenesulfonamide] | < 100
COc1ccc(-c2cncc(NS(=O)(=O)c3cc(Cl)ccc3OC(F)(F)F)c2)cc1 [Example XI-1, 5-chloro-N-[5-(4-methoxy-phenyl)-pyridin-3-yl]-2-trifluoromethoxy-benzenesulfonamide] | < 100
COc1ccc(-c2cncc(NS(=O)(=O)c3cc(OC(F)(F)F)ccc3OC)c2)cc1 [Example XI-2, 2-Methoxy-N-(5-(4-methoxyphenyl)pyridin-3-yl)-5-(trifluoromethoxy)benzenesulfonamide] | < 100
O=S(=O)(Nc1cncc(-c2ccc(OC(F)(F)F)cc2)c1)c1cc(Cl)ccc1OC(F)(F)F [Example XI-3, 5-Chloro-2-(trifluoromethoxy)-N-(5-(4-(trifluoromethoxy)phenyl)pyridin-3-yl)benzenesulfonamide] | 100 to 1000
O=S(=O)(Nc1cncc(-c2ccc(OC(F)(F)F)cc2)c1)c1cc(Br)ccc1OC(F)(F)F [Example XI-4, 5-Bromo-2-(trifluoromethoxy)-N-(5-(4-(trifluoromethoxy)phenyl)pyridin-3-yl)benzenesulfonamide] | 100 to 1000
O=S(=O)(Nc1cncc(-c2ccc(F)cc2)c1)c1cc(Cl)ccc1OC(F)(F)F [Example XI-8, 5-Chloro-N-(5-(4-fluorophenyl)pyridin-3-yl)-2-(trifluoromethoxy)benzenesulfonamide] | < 100
O=S(=O)(Nc1cncc(-c2ccc(F)cc2)c1)c1cc(Br)ccc1OC(F)(F)F [Example XI-9, 5-Bromo-N-(5-(4-fluorophenyl)pyridin-3-yl)-2-(trifluoromethoxy)benzenesulfonamide] | 100 to 1000
COc1ccc(OC(F)(F)F)cc1S(=O)(=O)Nc1cncc(-c2ccc(F)cc2)c1 [Example XI-10, N-(5-(4-Fluorophenyl)pyridin-3-yl)-2-methoxy-5-(trifluoromethoxy)benzenesulfonamide] | 100 to 1000
N#Cc1ccc(-c2cncc(NS(=O)(=O)c3cc(Br)ccc3OC(F)(F)F)c2)cc1 [Example XI-11, 5-Bromo-N-(5-(4-cyanophenyl)pyridin-3-yl)-2-(trifluoromethoxy)benzenesulfonamide] | 100 to 1000
O=S(=O)(Nc1cncc(-c2ccco2)c1)c1cc(Cl)ccc1OC(F)(F)F [Example XI-12, 5-Chloro-N-(5-(furan-2-yl)pyridin-3-yl)-2-(trifluoromethoxy)benzenesulfonamide] | < 100
COc1ccc(OC(F)(F)F)cc1S(=O)(=O)Nc1cncc(-c2ccco2)c1 [Example XI-13, N-(5-(Furan-2-yl)pyridin-3-yl)-2-methoxy-5-(trifluoromethoxy)benzenesulfonamide] | < 100
O=S(=O)(Nc1cncc(-c2cccs2)c1)c1cc(Cl)ccc1OC(F)(F)F [Example XI-14, 5-Chloro-N-(5-(thiophen-2-yl)pyridin-3-yl)-2-(trifluoromethoxy)benzenesulfonamide] | 100 to 1000
O=S(=O)(Nc1cncc(-c2cccs2)c1)c1cc(Br)ccc1OC(F)(F)F [Example XI-15, 5-Bromo-N-(5-(thiophen-2-yl)pyridin-3-yl)-2-(trifluoromethoxy)benzenesulfonamide] | 100 to 1000
COc1ccc(OC(F)(F)F)cc1S(=O)(=O)Nc1cncc(-c2cccs2)c1 [Example XI-16, 2-Methoxy-N-(5-(thiophen-2-yl)pyridin-3-yl)-5-(trifluoromethoxy)benzenesulfonamide] | < 100
O=S(=O)(Nc1cncc(-c2ccccn2)c1)c1cc(Cl)ccc1OC(F)(F)F [Example XI-17, N-([2,3′-Bipyridin]-5′-yl)-5-chloro-2-(trifluoromethoxy)benzenesulfonamide] | 100 to 1000
O=S(=O)(Nc1cncc(-c2ccccn2)c1)c1cc(Br)ccc1OC(F)(F)F [Example XI-18, N-([2,3′-Bipyridin]-5′-yl)-5-bromo-2-(trifluoromethoxy)benzenesulfonamide] | 100 to 1000

Structure (SMILES) | IC50 [nM]
COc1ccc(OC(F)(F)F)cc1S(=O)(=O)Nc1cncc(-c2ccccn2)c1 [Example XI-19, N-([2,3′-Bipyridin]-5′-yl)-2-methoxy-5-(trifluoromethoxy)benzenesulfonamide] | 100 to 1000
O=S(=O)(Nc1cncc(-c2cnccn2)c1)c1cc(Cl)ccc1OC(F)(F)F [Example XI-20, 5-Chloro-N-(5-(pyrazin-2-yl)pyridin-3-yl)-2-(trifluoromethoxy)benzenesulfonamide] | 100 to 1000
O=S(=O)(Nc1cncc(-c2cnccn2)c1)c1cc(Br)ccc1OC(F)(F)F [Example XI-21, 5-Bromo-N-(5-(pyrazin-2-yl)pyridin-3-yl)-2-(trifluoromethoxy)benzenesulfonamide] | 100 to 1000
COc1ccc(OC(F)(F)F)cc1S(=O)(=O)Nc1cncc(-c2cnccn2)c1 [Example XI-22, 2-Methoxy-N-(5-(pyrazin-2-yl)pyridin-3-yl)-5-(trifluoromethoxy)benzenesulfonamide] | 100 to 1000
O=S(=O)(Nc1cncc(-c2ncccn2)c1)c1cc(Cl)ccc1OC(F)(F)F [Example XI-23, 5-chloro-N-(5-(pyrimidin-2-yl)pyridin-3-yl)-2-(trifluoromethoxy)benzenesulfonamide] | > 1000
O=S(=O)(Nc1cncc(-c2ncccn2)c1)c1cc(Br)ccc1OC(F)(F)F [Example XI-24, 5-Bromo-N-(5-(pyrimidin-2-yl)pyridin-3-yl)-2-(trifluoromethoxy)benzenesulfonamide] | 100 to 1000
O=S(=O)(Nc1cncc(-c2cncs2)c1)c1cc(Cl)ccc1OC(F)(F)F [Example XI-25, 5-Chloro-N-(5-(thiazol-5-yl)pyridin-3-yl)-2-(trifluoromethoxy)benzenesulfonamide] | 100 to 1000
O=S(=O)(Nc1cncc(-c2cncs2)c1)c1cc(Br)ccc1OC(F)(F)F [Example XI-26, 5-bromo-N-(5-(thiazol-5-yl)pyridin-3-yl)-2-(trifluoromethoxy)benzenesulfonamide] | < 100
COc1ccc(OC(F)(F)F)cc1S(=O)(=O)Nc1cncc(-c2cncs2)c1 [Example XI-27, 2-Methoxy-N-(5-(thiazol-5-yl)pyridin-3-yl)-5-(trifluoromethoxy)benzenesulfonamide] | 100 to 1000
O=S(=O)(Nc1cncc(-c2cscn2)c1)c1cc(Cl)ccc1OC(F)(F)F [Example XI-28, 5-Chloro-N-(5-(thiazol-4-yl)pyridin-3-yl)-2-(trifluoromethoxy)benzenesulfonamide] | < 100
O=S(=O)(Nc1cncc(-c2cscn2)c1)c1cc(Br)ccc1OC(F)(F)F [Example XI-29, 5-Bromo-N-(5-(thiazol-4-yl)pyridin-3-yl)-2-(trifluoromethoxy)benzenesulfonamide] | < 100
COc1ccc(OC(F)(F)F)cc1S(=O)(=O)Nc1cncc(-c2cscn2)c1 [Example XI-30, 2-Methoxy-N-(5-(thiazol-4-yl)pyridin-3-yl)-5-(trifluoromethoxy)benzenesulfonamide] | < 100
Cn1cc(-c2cncc(NS(=O)(=O)c3cc(Br)ccc3OC(F)(F)F)c2)cn1 [Example XI-31, 5-Bromo-N-(5-(1-methyl-1H-pyrazol-4-yl)pyridin-3-yl)-2-(trifluoromethoxy)benzenesulfonamide] | < 100
COc1ccc(OC(F)(F)F)cc1S(=O)(=O)Nc1cncc(-c2cnn(C)c2)c1 [Example XI-32, 2-Methoxy-N-(5-(1-methyl-1H-pyrazol-4-yl)pyridin-3-yl)-5-(trifluoromethoxy)benzenesulfonamide] | < 100
COC(=O)c1cncc(NS(=O)(=O)c2cc(Cl)ccc2OC(F)(F)F)c1 [Example XII-1, Methyl 5-(5-chloro-2-(trifluoromethoxy)phenylsulfonamido)nicotinate] | 100 to 1000
O=C(OC1CCCCC1)c1cncc(NS(=O)(=O)c2cc(Cl)ccc2OC(F)(F)F)c1 [Example XII-3, Cyclohexyl 5-(5-chloro-2-(trifluoromethoxy)phenylsulfonamido)nicotinate] | < 100
O=C(Oc1ccccc1)c1cncc(NS(=O)(=O)c2cc(Cl)ccc2OC(F)(F)F)c1 [Example XII-4, Phenyl 5-(5-chloro-2-(trifluoromethoxy)phenylsulfonamido)nicotinate] | < 100
CNC(=O)c1cncc(NS(=O)(=O)c2cc(Cl)ccc2OC(F)(F)F)c1 [Example XII-6, 5-(5-Chloro-2-(trifluoromethoxy)phenylsulfonamido)-N-methylnicotinamide] | 100 to 1000
CCCNC(=O)c1cncc(NS(=O)(=O)c2cc(Cl)ccc2OC(F)(F)F)c1 [Example XII-7, 5-(5-Chloro-2-(trifluoromethoxy)phenylsulfonamido)-N-propylnicotinamide] | > 1000
O=C(NC1CCCCC1)c1cncc(NS(=O)(=O)c2cc(Cl)ccc2OC(F)(F)F)c1 [Example XII-8, 5-(5-Chloro-2-(trifluoromethoxy)phenylsulfonamido)-N-cyclohexylnicotinamide] | 100 to 1000
